Test results taken from patent publication US20230201383A1, “PSMA TARGETING UREA-BASED LIGANDS FOR PROSTATE CANCER RADIOTHERAPY AND IMAGING” (Rigshospitalet, priority 2020, published 2023).
“Also recorded” adds a separate entry of the source. Counter-ions that a name gives are not always drawn.

Assays:
PSMA(+) LNCaP cells = experiment: Internalisation and cell surface binding of 68Ga-labeled compounds in LNCaP cells; type: cell-based, human
Description: Compounds Ii, Ij, Ik, Il, Im and In was provided using the same method as disclosed in Example 3 and in vitro test of the binding affinity and internalisation of the compounds were examined using the method as described in Benesova et al, 2016^9. The iodine isotope used was ^127I.
For internalisation determinations, a day before the experiment, PSMA(+) LNCaP cells were seeded in a poly-L-lysine coated 24-well plate (10^5 cells per well) and maintained at 37° C. in an atmosphere of 5% CO2 under supplemented RMPI medium (10% Fetal Calf Serum, 1% sodium pyruvate, 1% FIS). Cells were incubated with 250 μL of radiolabelled compound diluted in RPMI medium (final concentration of [^68Ga]-peptide: 30 nM) and 500 μM of PMPA (2-phosphonomethyl-pentanedioic acid) for the blocked series, for 45 min at 37° C. Cellular uptake was interrupted by washing the cells with ice-cold PBS (3×1 mL). Surface bound radioactivity was removed by incubating twice with 0.5 mL glycine (50 mM, pH=2.8) for 5 min. Thereafter, cells were washed with PBS (1 mL) and lysed employing NaOH (0.3 M) during 10 min. Lysates and surface-bound activity were collected and measured in a gamma-counter (Perkin Elmer 2480, Wizard, Gamma Counter). The cell uptake was calculated as percent of the initially added radioactivity bound to […].
For internalisation studies androgen-sensitive human prostate adenocarcinoma cells (LNCaP) highly overexpressing PSMA were incubated with the ^68Ga-labeled compounds resulting in specific cell surface binding of all tested compounds (Table 2).

[1] = test system: LNCaP-tumor-bearing athymic nude mice; experiment: Small-animal PET imaging: tumor uptake and pharmacokinetic profile; type: in vivo; settings: for Binding profile and biodistribution/pharmacokinetics compared with PSMA-617: direct head-to-head comparison with PSMA-617
Description: For the experimental tumor models 1×10^7 cells of LNCaP (in 50% Matrigel; Becton Dickinson) were subcutaneously inoculated into the right flank of 7- to 8-week-old male BALB/c nu/nu mice (Janvier). For imaging studies, mice were anesthetized (2% isoflurane) and 0.5 nmol of the ^68Ga-labeled compound in 0.9% NaCl (pH 7) were injected into the tail vein. PET imaging was performed with μPET/MRI scanner (BioSpec 3T, Bruker) with a dynamic scan for 60 min. The images were iteratively reconstructed (MLEM 0.5 algorithm, 12 iterations) and were converted to SUV images. Quantification was done using a ROI (region of interest) technique and data in expressed in time activity curves as SUVbody weight. All animal experiments complied with the current laws of the Federal Republic of Germany.
FIGS. 2 to 7 show the pharmacokinetic study with small-animal PET imaging. Time activity curves for non-target organs and tumor after injection of 0.5 nmol ^68Ga-labeled compounds in LNCaP-tumor-bearing athymic nude mice (right trunk) up to 60 min p.i. SUV=standardized uptake value.

[2] = 68Ga-labeled compounds, 30 nM, 45 min at 37° C., LNCaP cells, specific uptake by blockage with 500 μM 2-PMPA, mean ± SD (n=3)
[3] = 68Ga-labeled compounds, LNCaP cells
[4] = 0.5 nmol 68Ga-labeled compound i.v., PET up to 60 min p.i., time activity curves (SUV)
[5] = 68Ga-labeled compounds, LNCaP cells, trifluoroacetic acid salt

Row | Tumor uptake compared with PSMA-617 [1, 4] | Compound | Specifically cell surface bound (PSMA(+) LNCaP cells; [2]) | Specifically internalised (PSMA(+) LNCaP cells; [2]) | Internalisation compared with PSMA-617 (in words) (PSMA(+) LNCaP cells; [3]) | Tumor-to-muscle ratio compared with PSMA-617 [1, 4] | Binding profile and biodistribution/pharmacokinetics compared with PSMA-617 [1] | Internalisation compared with PSMA-617 (in words) (PSMA(+) LNCaP cells; [5]) | Tumor accumulation (reversibility) [1, 4] | Specifically cell surface bound (PSMA(+) LNCaP cells; 0.75 h, 0.03 µM)
1 | – | O=C(O)CC[C@H](NC(=O)N[C@@H](CCCCNC(=O)[C@H](Cc1ccccc1I)NC(=O)[C@H]1CC[C@H](CNC(=O)CN2CCN(CC(=O)O)CCN(CC(=O)O)CCN(CC(=O)O)CC2)CC1)C(=O)O)C(=O)O [Ii, (((S)-1-carboxy-5-((S)-3-(2-iodophenyl)-2-((1r,4S)-4-((2-(4,7,10-tris(carboxymethyl)-1,4,7,10-tetraazacyclododecan-1-yl)acetamido)methyl)cyclohexane-1-carboxamido)propanamido)pentyl)carbamoyl)-L-glutamic acid trifluoroacetic acid salt] | 1.1 ± 0.4 % IA/10^5 cells | 0.7 ± 0.1 % IA/10^5 cells | comparable to PSMA-617 | increased at later time points compared to PSMA-617 | comparable or superior to values observed for PSMA-617 | – | – | –
2 | – | O=C(O)CC[C@H](NC(=O)N[C@@H](CCCCNC(=O)[C@H](Cc1cccc(I)c1)NC(=O)[C@H]1CC[C@H](CNC(=O)CN2CCN(CC(=O)O)CCN(CC(=O)O)CCN(CC(=O)O)CC2)CC1)C(=O)O)C(=O)O [Ij, (((S)-1-carboxy-5-((S)-3-(3-iodophenyl)-2-((1r,4S)-4-((2-(4,7,10-tris(carboxymethyl)-1,4,7,10-tetraazacyclododecan-1-yl)acetamido)methyl)cyclohexane-1-carboxamido)propanamido)pentyl)carbamoyl)-L-glutamic acid trifluoroacetic acid salt] | 2.3 ± 0.2 % IA/10^5 cells | 0.8 ± 0.3 % IA/10^5 cells | – | – | – | higher than or comparable to PSMA-617; also recorded: comparable to PSMA-617 | – | –
3 | – | O=C(O)CC[C@H](NC(=O)N[C@@H](CCCCNC(=O)[C@H](Cc1ccc(I)cc1)NC(=O)[C@H]1CC[C@H](CNC(=O)CN2CCN(CC(=O)O)CCN(CC(=O)O)CCN(CC(=O)O)CC2)CC1)C(=O)O)C(=O)O [Ik, (((S)-1-carboxy-5-((S)-3-(4-iodophenyl)-2-((1r,4S)-4-((2-(4,7,10-tris(carboxymethyl)-1,4,7,10-tetraazacyclododecan-1-yl)acetamido)methyl)cyclohexane-1-carboxamido)propanamido)pentyl)carbamoyl)-L-glutamic acid trifluoroacetic acid salt] | 0.7 ± 0.1 % IA/10^5 cells | 0.6 ± 0.3 % IA/10^5 cells | comparable to PSMA-617 | – | – | – | more reversible tumor accumulation | –
4 | – | O=C(O)CC[C@H](NC(=O)N[C@@H](CCCCNC(=O)[C@@H](Cc1c[nH]c2ccc(I)cc12)NC(=O)[C@H]1CC[C@H](CNC(=O)CN2CCN(CC(=O)O)CCN(CC(=O)O)CCN(CC(=O)O)CC2)CC1)C(=O)O)C(=O)O [Il, (((S)-1-carboxy-5-((R)-3-(5-iodo-1H-indol-3-yl)-2-((1r,4R)-4-((2-(4,7,10-tris(carboxymethyl)-1,4,7,10-tetraazacyclododecan-1-yl)acetamido)methyl)cyclohexane-1-carboxamido)propanamido)pentyl)carbamoyl)-L-glutamic acid trifluoroacetic acid salt] | 1.6 ± 0.4 % IA/10^5 cells | 0.6 ± 0.2 % IA/10^5 cells | comparable to PSMA-617 | – | – | – | – | –
5 | higher tumor uptake compared to PSMA-617 | O=C(O)CC[C@H](NC(=O)N[C@@H](CCCCNC(=O)[C@H](Cc1ccc2ccccc2c1)NC(=O)[C@H]1CC[C@H](CNC(=O)[C@H](Cc2ccc(I)cc2)NC(=O)CN2CCN(CC(=O)O)CCN(CC(=O)O)CCN(CC(=O)O)CC2)CC1)C(=O)O)C(=O)O [Im, (((S)-1-carboxy-5-((S)-2-((1S,4S)-4-(((S)-3-(4-iodophenyl)-2-(2-(4,7,10-tris(carboxymethyl)-1,4,7,10-tetraazacyclododecan-1-yl)acetamido)propanamido)methyl)cyclohexanecarboxamido)-3-(naphthalen-2-yl)propanamido)pentyl)carbamoyl)-L-glutamic acid trifluoroacetic acid salt] | 1.6 ± 0.5 % IA/10^5 cells | 0.9 ± 0.5 % IA/10^5 cells | – | – | comparable or superior to values observed for PSMA-617 | higher than or comparable to PSMA-617; also recorded: comparable to PSMA-617 | – | –
6 | – | O=C(O)CC[C@H](NC(=O)N[C@@H](CCCCNC(=O)[C@H](Cc1ccc2ccccc2c1)NC(=O)[C@H](Cc1ccc(I)cc1)NC(=O)CN1CCN(CC(=O)O)CCN(CC(=O)O)CCN(CC(=O)O)CC1)C(=O)O)C(=O)O [In, (((S)-1-carboxy-5-((S)-2-((S)-3-(4-iodophenyl)-2-(2-(4,7,10-tris(carboxymethyl)-1,4,7,10-tetraazacyclododecan-1-yl)acetamido)propanamido)-3-(naphthalen-2-yl)propanamido)pentyl)carbamoyl)-L-glutamic acid trifluoroacetic acid salt] | 0.4 ± 0.1 % IA/10^5 cells | 0.2 ± 0.1 % IA/10^5 cells | reduced internalised fraction | – | – | – | – | –
7 | – | O=C(O)CC[C@H](NC(=O)N[C@@H](CCCCNC(=O)[C@H](Cc1ccc2ccccc2c1)NC(=O)[C@H]1CC[C@H](CNC(=O)CN2CCN(CC(=O)O)CCN(CC(=O)O)CCN(CC(=O)O)CC2)CC1)C(=O)O)C(=O)O [PSMA-617, reference compound] | – | 0.6 ± 0.2 % IA/10^5 cells | – | – | – | – | – | 1.5 ± 0.4 % IA/10^5 cells
